# Assay results: paper PMC4521150, “Discovery of Novel Inhibitors and Fluorescent Probe Targeting NAMPT” (Scientific Reports, 2015)
# Like-named read-outs stand apart in the source and are kept apart here.
# Tests used:
# [1] = test system: primary mouse hepatocytes; assay: Cell viability of primary hepatocytes from normal mice; type: cell-based; details: 30 μM
# Method: (§1) Cell viability was determined by our previous method[27] using the Cell Counting Kit-8 (CCK-8, Dojindo, Japan). In human hepatocellular carcinoma cell line HepG2, cells were seeded in 96-well plate and starved for over 12 h with serum-free DMEM at 60~70% confluency, then treated with compounds or vehicle for 48 h. To determine the IC50 values of inhibitors, compounds with various concentrations were added into the 96-well plate. 10 μl CCK-8 solution was added to the culture medium and incubated at 37 °C for 1 h. The absorbance at 450 nm (A450) was detected by a plate reader. Each experiment was carried out in triplicate in three replicate wells. The IC50 values were determined by non-linear fitting of the concentration-dependent curves with the four-parameter IC50 logistic equation.
# Hepatocytes were isolated from mouse liver by the two-step collagenase perfusion method. […] For imaging experiment, 1 × 10^5 cells were plated in a 35-mm glass bottom dishes or 5 × 10^4 were plated in 48-well plate for cell viability assay in DMEM supplemented with 10% FBS and antibiotics, and kept under an atmosphere of 95% air and 5% CO2 at 37 °C.
# [2] = test system: HepG2 NAD levels; assay: Cellular NAD measurement (enzymatic cycling assay) in HepG2 cells; type: cell-based, human
# Method: Cellular level of NAD was measured by spectrophotometric enzymatic cycling assay, as described previously. Briefly, cells were seeded in 96-well plate and starved for over 12 h with serum-free DMEM at 60~70% confluency, following by treatment with compounds or vehicle for 24 h. Cells were lysed with 50 μl of 1M HClO4 on ice for 30 min. The lysates were cleared by centrifuging at 4 °C at 18,000 × g for 5 min, and cleared lysates (40 μl) were neutralized by adding 1M K2CO3 (16 μl) and incubation on ice for 20 min. After centrifuging for 10 min, 10 μl of supernatant were mixed with reaction buffer [50 mM Tris-HCl (pH 7.5), 3% ethanol, 1.66 mM PES (phenazineethosulfate), 0.42 mM MTT (3-(4,5-dimethylthiazolyl-2)-2,5-diphenyltetrazolium bromide), 90 μg/ml ADH] in a total volume of 100 ul, and incubated at 37 °C for 40 min. The absorbance at 570 nm was determined. A blank measurement without ADH was also carried out. Each experiment was carried out in triplicate in three replicate wells
# [3] = test system: HepG2 cells; assay: Live cell fluorescence imaging of compounds in HepG2 cells; type: cell-based, human; details: 3 μM, 30 minutes incubation, washed
# Method: NAMPT knockdown in HepG2 cells was performed by transfection of NAMPT siRNA synthesized by Shanghai GenePharma Co., Ltd (Shanghai, China). The siRNA sequence targeting NAMPT corresponded to coding regions (5′-[…]-3′, 5′-[…]-3′) of the NAMPT gene. The nonspecific siRNA oligonucleotides (synthesized by Shanghai GenePharma Co., Ltd, Shanghai, China) were used as negative controls. 10 nM of NAMPT siRNA or nonspecific siRNA were transfected into HepG2 cells with Lipofectamine RNAiMax reagent (Invitrogen, CA, USA) according to the manufacturer’s instructions. After 24 or 48 hours, transfected cells were subjected to subsequent analysis.
# For imaging experiment, HepG2 cells or primary hepatocytes were seeded into 35-mm glass bottom dishes (In Vitro Scientific). The following day, compounds were added to the medium at a final concentration of 3 μM. After 30 minutes, cells were rinsed twice with PBS (pH 7.5), then incubated in fresh culture medium and imaged on a fluorescence microscope (IX-71, Olympus) with a digital camera (Olympus). After 4 hours, these cells were imaged once again. Digital images were recorded and analyzed using ImageJ.
# [4] = test system: HepG2 cells; assay: Cell viability assay (CCK-8) in HepG2 cells; type: cell-based, human; details: for IC50: HepG2, 48 h, CCK-8, read-out: IC50 for inhibitory effect on HepG2 cell viability
# Method: as §1
# [5] = test system: Huh-7 cell; assay: Cell viability in Huh-7 cells; type: cell-based, human; details: Huh-7, Figure S2
# From the text: However, IC50 values for other 5 fluorescent compounds were able to be determined (Supplemental dataset S2). We then measured the fluorescence of all 9 fluorescent compounds at a series of different concentrations.
smiles,measurement,setting,value
Cc1nc2ccccc2n(Cc2ccc(C(=O)NCc3cccnc3)cc2)c1=O [F671-0003],Inhibition of normal hepatocytes viability,[1],~ 20%
same,Decrease of cellular NAD level,"[2]; HepG2, 1 μM, 24 hours",~ 80%
same,IC50,"[2]; Homo sapiens, HepG2, 24 hours treatment, read-out: IC50 for reducing NAD level",6.71 nM
same,Cellular fluorescence in living HepG2 cells,[3],did not show any fluorescence
same,Effect on HepG2 cell viability at 2 μM,"[4]; 2 μM, 48 hours of incubation",significant inhibition on cell viability
same,Inhibition on cell viability,"[4]; HepG2, 2 μM, 48 h",50%
same,Rescue of cell viability by exogenous NMN,"[4]; HepG2, 3 μM compound, NMN at 300 μM",totally rescued
same,IC50,[4],1690 ± 150 nM
same,IC50,[4]; Homo sapiens,~2000 nM
same,Effect on Huh-7 cell viability,[5],Inhibitory effects
